From patent publication US20050020544A1, “Bicyclic CB2 cannabinoid receptor ligands” (priority 2002, published 2005)

What was measured:
[1] = target: human CB2 receptor (Homo sapiens, UniProt P34972); assay: biochemical; format: binding; design: purchased Perkin Elmer/NEN; host or cells: CHO cells, stably transfected (membranes); conditions: for CB2/CB1 affinity ratio: IC50 CB1/IC50 CB2; for IC50: displacement of [3H]WIN 55212-2, hCB2 CHO membranes
Method in brief: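 Displacement of 0.8 nM [^3H]WIN 55212-2 from hCB2-transfected CHO membranes (25 μg protein) was measured in HEPES buffer pH 7.4 with MgCl2, EDTA and BSA, 40 min at 30 °C. Non-specific binding was defined with 10 μM CP 55940, then samples were filtered and β-counted. IC50 was extrapolated from log concentration vs % binding.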

[2] = tested on: Male Sprague Dawley rats; assay: Effect on the cardiovascular system (MABP, heart rate); format: in vivo, rat
Description: The purpose of this study was to assess the safety of the test compounds in male Sprague Dawley rats (270-350 g, Harlan, Israel). The test compounds were dissolved in vehicle, diluted 1:20 in sterile saline and injected either i.v. or i.p. at doses ranging from 0.1 to 2 mg/kg for i.v. administration or 10 to 40 mg/kg for i.p. administration, in volumes of 0.5 ml/100 g body weight. Each treatment group was composed of at least 6 animals. A cannula (PE 50, Clay Adams, USA) was implanted into the femoral artery under halothane anesthesia (induction 4% and maintenance 1%)). The vein was cannulated for drug administration. The arterial cannula was attached to a pressure transducer (Ohmeda DT-XX USA). The transducer was connected to a data acquisition system (Biopac, USA). Recordings of the heart rate (HR), mean arterial blood pressure (MABP) and electrocardiogram (ECG lead 2) were taken for 20 minutes before treatment, for the establishment of a stable baseline, up to 60 minutes following injections of the test compounds. Animals were also connected to a temperature recorder through a rectal thermistor probe (YSI Model 400, USA) and rectal temperature was monitored along the duration of the study.
Differences between vehicle and treatments are compared by one-way ANOVA, followed by post-hoc Newman-Keuls tests (Prism software from Graphpad, San Diego).

[3] = tested on: ICR male mice; assay: Tail flick model for acute peripheral pain, i.p.; format: in vivo, mouse
Method in brief: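 Male ICR mice (≥6/group) dosed i.p. at 0.1–10 mg/kg in Cremophor EL:ethanol diluted 1:20 in saline; morphine HCl 5 mg/kg as positive control. Tail illuminated 2 cm from tip at set times post-dose; latency (s) recorded in duplicate. Read-outs: latency and % animals showing analgesia, mean±SE; ANOVA/Tukey or Fisher's exact test, p<0.05.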

[4] = 10 mg/kg i.p., 330 minutes (five and a half hours)
[5] = 20 mg/kg i.p., one hour follow-up

Sequence of human CB2 receptor (P34972 whole entry): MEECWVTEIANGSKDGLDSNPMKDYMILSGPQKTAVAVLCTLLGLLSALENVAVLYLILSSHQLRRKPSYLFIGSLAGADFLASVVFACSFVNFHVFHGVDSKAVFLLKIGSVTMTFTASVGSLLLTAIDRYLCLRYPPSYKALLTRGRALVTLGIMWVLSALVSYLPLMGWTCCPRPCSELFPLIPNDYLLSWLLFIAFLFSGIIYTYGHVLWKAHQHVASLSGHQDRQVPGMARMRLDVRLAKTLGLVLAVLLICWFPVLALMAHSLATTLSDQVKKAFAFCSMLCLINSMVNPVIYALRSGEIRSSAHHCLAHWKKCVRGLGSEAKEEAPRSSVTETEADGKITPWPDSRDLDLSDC

CCCCC(C)(C)c1cc(O)c(C2CC(=O)C3CC2C3(C)C)c(O)c1 (single isomer, unassigned; (-)) [Compound L, (−)-4-[4(1,1-Dimethyl-pentyl)-2,6-dihydroxy-phenyl]-6,6-dimethyl-bicyclo[3.1.1]heptan-2-one]
CB2/CB1 affinity ratio [1]: 117
IC50 [1]: 3.8 nM

CCCCCCC(C)(C)c1cc(O)c([C@H]2CC(=O)[C@H]3C[C@@H]2C3(C)C)c(OC(=O)CCC(=O)O)c1 [Compound R, (−)-4-{4-[1,1-Dimethyl-heptyl]-2-succinate-6-hydroxy-phenyl}-6,6-dimethyl-bicyclo[3.1.1]heptan-2-one]
CB2/CB1 affinity ratio [1]: 34
IC50 [1]: 1.2 nM
amplitude of HR fluctuations ([2]; 40 mg/kg i.p.): 10%
average drop in HR ([2]; 40 mg/kg i.p.): about 4 beats per minute
reduction in MABP ([2]; i.p., 40 mg/kg): ≤ 36 mmHg
% animals showing analgesia ([3]; 10 mg/kg i.p., 90 minutes): 100%
latency time ([3]; 10 mg/kg i.p., 90 minutes): 8.5 s
% animals showing increased analgesia [3, 4]: 100%
latency time [3, 4]: 6.8 s
% animals with increased resistance to pain ([3]; 10 mg/kg i.p., all along the duration of the study (5.5 hours)): 100%
analgesia compared with 5 mg/kg morphine ([3]; 4 and 8 mg/kg i.p.): still twice better than 5 mg/kg morphine in generating analgesia

CCCCC(C)(C)c1cc(O)c(C2CC(=O)C3CC2C3(C)C)c(OC(=O)CCC(=O)O)c1 (single isomer, unassigned; (-)) [Compound Y, (−)-4-{4-[1,1-Dimethyl-pentyl]-2-succinate-6-hydroxy-phenyl}-6,6-dimethyl-bicyclo[3.1.1]heptan-2-one]
CB2/CB1 affinity ratio [1]: 42
IC50 [1]: 7.4 nM

CCCCCCC(C)(C)c1cc(O)c(C2CC(=O)C3CC2C3(C)C)c(O)c1 (single isomer, unassigned; (-)) [Compound A, (−)-4-[4-(1,1-Dimethyl-heptyl)2,6-dihydroxy-phenyl]-6,6-dimethyl-bicyclo[3.1.1)heptan-2-one]
IC50 to CB2, fold lower than its (+) enantiomer ([1]; compound A versus (+) enantiomer): 10 fold
IC50 [1]: 1 nM
effect on heart rate ([2]; 0.1 mg/kg i.v.): minor insignificant and transient decline in HR
decrease in MABP ([2]; 0.1 mg/kg i.v., 5 minutes post injection): 4 mmHg
time for MABP back to baseline range ([2]; 0.5 mg/kg i.v.): 30 min
decrease in MABP ([2]; 0.5 mg/kg i.v., 5 minutes): about 25 mmHg
time for MABP back to baseline range ([2]; 1 mg/kg i.v.): 45 min
decrease in MABP ([2]; 1 mg/kg i.v., 5 minutes): about 30 mmHg
drop in HR [2, 5]: about 17 beats per minute
drop in HR from baseline [2, 5]: 5%
maximal drop in HR ([2]; higher doses i.v.): about 80 beats per minute
hypotension (decrease in MABP) ([2]; i.p., up to 30 mg/kg): ≤ 15 mmHg
latency time ([3]; 4 mg/kg i.p., thirty minutes): 4.9 s
% animals showing analgesia ([3]; 10 mg/kg i.p., 90 minutes): more than 80%
latency time ([3]; 10 mg/kg i.p., 90 minutes): 7.3 s
% animals showing increased analgesia [3, 4]: 80%
latency time [3, 4]: 4.9 s
% animals showing increased analgesia ([3]; 10 mg/kg i.p., initiation of the study): 100%
analgesia ([3]; 8 and 10 mg/kg i.p., 330 minutes): Significant analgesia was still evident
maximal latency ([3]; maximal tested dose 10 mg/kg i.p., 30 minutes): 7.1 s
